# Where a SMILES comes first, the peptide text is derived from it.
# Columns and labels:
# GCGR = biological target: T1, GCGR (Homo sapiens, UniProt P47871); test: GC receptor-mediated cAMP production in vitro; assay type: cell-based; conditions: HEK293 cell line stably expressing GCGR
# T1 construct: expressed in transfected cells
# Procedure: (§1) HEK293 cell line stably expressing GLP-1R or GCGR was used for screening GLP-1R and GCGR agonist.
# (§2) Preparation of test sample: each compound was prepared into 100 μM stock solution, and then gradually diluted to working concentrations of 1 μM, 100 nM, 10 nM, 1 nM, 10^−1 nM, 10^−2 nM, 10^−3 nM, and H2O.
# (§3) 1) Each compound to be tested was mixed with a serum-free medium (containing 0.1% BSA and 0.5 mM IBMX) to obtain a solution at a concentration 2 times the working concentration.
# (§4) 2) The cells were digested, suspended in a serum-free medium (containing 0.5 mM IBMX), counted, and placed in a 384-well plate at a density of 1,000 cells/5 μL/well, then 5 μL of the testing compound was added, and the plate was placed in dark for reaction for 30 min.
# (§5) 3) After the reaction was completed, a substrate for detecting cAMP was added, and the plate was placed in dark for reaction at the room temperature for 60 min.
# (§6) 4) After the reaction was completed, the plate was placed on the Envision2104 multifunctional microplate reader for detection, and the ratio of optical density (OD) values at 665 nm and 615 nm were read out.
# [1] = system: diet-induced obesity (DIO) mice; test: Obese (DIO) model mice, 23 days of successive administration; assay type: in vivo, C57BL/6J Gpt mice
# From the text: C57BL/6J Gpt mice (purchased from GemPharmatech (Jiangsu) Co., Ltd.) (6-8-week-old) were fed with H10060 high-fat diet (purchased from Beijing HFK Bioscience Co., Ltd.) to obtain diet-induced obesity (DIO) models, mice in a blank control group (n=5) were fed with standard diets, and all the mice were fed for 11 weeks after being purchased. One day before the first administration, the mice in the model group were randomly divided into 5 groups according to their weights (within a range of 39.5-49.5 g), i.e., a model control group, a positive control group, and test compound groups (dgc005, dgc016, and dgc020), respectively, 5 mice in each group, which were administered every day by subcutaneous injection. Saline was subcutaneously injected in the blank control group and the model control group every day. The administration was performed for 23 days. The positive control drug and the test compounds were administered at a dose of 30 nmol/kg, and the administration volume for each group was 0.005 mL/g weight. The mice were weighed before each administration, and 72-h food intake was weighed every three days. The mice fasted for 16 h before the last administration, fasting blood glucose levels were determined, blood was sampled from the orbital venous plexus to determine triglycerides and total cholesterol, and the liver was taken out for pathological section observation.
# The liver of each C576L/6 mouse in the groups was fixed with 12% formaldehyde and prepared into a specimen, and the tissue block was repaired, dehydrated with graded alcohol, embedded in paraffin, stained with HE, and examined under a light microscope.
# [2] = system: glucose loaded normal mice; test: Glucose loading test on normal mice after single administration; assay type: in vivo, Kunming mice; conditions: for Blood glucose reduction rate (%) / Blood glucose level after glucose loading: 30 nmol/kg single dose; for Blood glucose reduction rate (%): after glucose loading, versus model control group; for Blood glucose level after glucose loading: glucose 2.5 g/kg intragastric 60 min after administration, measured 30 min after loading; for Blood glucose level after glucose loading / Fasting blood glucose level: n=5; for Fasting blood glucose level: normal mice fasted 6 h, 30 nmol/kg group
# Procedure: The hypoglycemic action of each compound of Example 1 was assessed by a glucose loading test on normal mice after single administration.
# Method: Kunming mice (male, with a weight of 20-22 g) were acclimated in a barrier environment animal room for 3 days, divided into a blank control group, a model control group, a positive control group, and test compound groups, 5 mice in each group, and fasted for 6 h. Saline was administered to each mouse in the blank control group and the model control group, the compounds and a positive control drug were respectively administered to each mouse in the test compound groups and the positive control group at a dose of 30 nmol/kg, and the positive control drug was semaglutide. 60 min after administration, glucose was intragastrically administered to each mouse in the model control group, the positive control group, and the test compound groups at a dose of 2.5 g/kg (0.01 mL·g^−1 weight), distilled water was administered to each mouse in the blank control group, and blood glucose levels were determined 30 min after glucose loading.
# GLP-1R = biological target: T2, GLP-1R (Homo sapiens, UniProt P43220); test: GLP-1 receptor-mediated cAMP production in vitro; assay type: cell-based; conditions: HEK293 cell line stably expressing GLP-1R
# T2 construct: expressed in transfected cells
# T2 sequence (P43220 24-463, species assumed): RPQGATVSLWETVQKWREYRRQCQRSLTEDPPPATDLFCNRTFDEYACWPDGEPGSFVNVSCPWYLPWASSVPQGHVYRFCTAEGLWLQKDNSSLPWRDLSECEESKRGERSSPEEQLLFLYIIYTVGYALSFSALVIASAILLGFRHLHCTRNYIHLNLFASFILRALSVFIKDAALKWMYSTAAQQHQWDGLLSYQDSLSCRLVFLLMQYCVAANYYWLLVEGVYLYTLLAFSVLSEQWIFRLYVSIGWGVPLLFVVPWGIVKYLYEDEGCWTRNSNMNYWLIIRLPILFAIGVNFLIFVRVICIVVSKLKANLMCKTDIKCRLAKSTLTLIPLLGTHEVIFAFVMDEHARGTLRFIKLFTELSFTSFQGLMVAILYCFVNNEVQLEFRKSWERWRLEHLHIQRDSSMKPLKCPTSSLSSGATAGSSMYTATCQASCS
# Procedure: as §1, §2, §3, §4, §5, §6
# [3] = after 23 days of administration, 30 nmol/kg s.c. daily, n=5
# T1 sequence (P47871 26-477, species assumed): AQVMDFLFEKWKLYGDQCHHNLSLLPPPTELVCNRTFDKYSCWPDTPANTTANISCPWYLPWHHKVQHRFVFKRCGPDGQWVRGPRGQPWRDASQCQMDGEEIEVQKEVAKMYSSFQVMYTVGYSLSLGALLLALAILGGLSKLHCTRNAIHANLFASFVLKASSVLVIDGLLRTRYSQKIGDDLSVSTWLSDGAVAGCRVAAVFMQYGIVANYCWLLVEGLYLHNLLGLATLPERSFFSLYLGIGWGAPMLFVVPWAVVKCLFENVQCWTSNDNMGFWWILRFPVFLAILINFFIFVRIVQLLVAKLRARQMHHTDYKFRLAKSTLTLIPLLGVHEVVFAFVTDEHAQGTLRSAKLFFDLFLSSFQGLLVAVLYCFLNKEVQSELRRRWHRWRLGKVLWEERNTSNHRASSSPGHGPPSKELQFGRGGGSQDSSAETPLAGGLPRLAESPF
EC50 (GCGR) [nM],EC50 (GLP-1R) [nM],SMILES,"Fasting blood glucose (mmol/L) before the last administration ([1]; 30 nmol/kg s.c. daily, 23 days, fasted 16 h, n=5) [mmol/L]","Weight decreasing rate ([1]; 30 nmol/kg s.c. every day, without fasting before the last administration compared to day 1) [%]","Examination of liver pathological section ([1]; 23 days, 30 nmol/kg s.c. daily, HE stain, 2 animals)","TC (total cholesterol) [1, 3] [mmol/L]","TG (triglycerides) [1, 3]","72-h food intake ([1]; day 4 of administration, 30 nmol/kg s.c. daily) [g/mouse]","72-h food intake ([1]; day 7 of administration, 30 nmol/kg s.c. daily) [g/mouse]","72-h food intake ([1]; day 10 of administration, 30 nmol/kg s.c. daily) [g/mouse]","72-h food intake ([1]; day 13 of administration, 30 nmol/kg s.c. daily) [g/mouse]",Blood glucose reduction rate (%) [2] [%],Blood glucose level after glucose loading [2] [mmol/L],Fasting blood glucose level [2] [mmol/L]
0.883,1.51,"CCCCCCCCCCCCCCCC(=O)N[C@@H](CCC(=O)N[C@@H](CCC(=O)NCCCC[C@H](NC(=O)[C@H](C)NC(=O)[C@H](C)NC(=O)[C@H](CCCNC(=N)N)NC(=O)[C@H](CCC(=O)O)NC(=O)[C@H](CCC(=O)O)NC(=O)[C@H](CC(C)C)NC(=O)[C@H](Cc1ccc(O)cc1)NC(=O)[C@H](CCCCN)NC(=O)[C@H](CO)NC(=O)[C@H](Cc1ccc(O)cc1)NC(=O)[C@H](CC(=O)O)NC(=O)[C@H](CO)NC(=O)[C@@H](NC(=O)[C@H](Cc1ccccc1)NC(=O)[C@@H](NC(=O)CNC(=O)[C@H](CCC(N)=O)NC(=O)C(C)(C)NC(=O)[C@@H](N)Cc1c[nH]cn1)[C@@H](C)O)[C@@H](C)O)C(=O)N[C@@H](CCC(=O)O)C(=O)N[C@@H](Cc1ccccc1)C(=O)N[C@H](C(=O)N[C@@H](C)C(=O)N[C@@H](Cc1c[nH]c2ccccc12)C(=O)N[C@@H](CC(C)C)C(=O)N[C@@H](CCC(=O)O)C(=O)NCC(=O)N[C@@H](CCC(=O)O)C(=O)NCC(N)=O)[C@@H](C)CC)C(=O)O)C(=O)O [dgc020] (HELM PEPTIDE1{H.[Aib].Q.G.T.F.T.S.D.Y.S.K.Y.L.E.E.R.A.A.K.E.F.I.A.W.L.E.G.E.G.[am]}|PEPTIDE2{[CCCCCCCCCCCCCCCC(=O)[*:2]].[gGlu].[gGlu]}$PEPTIDE1,PEPTIDE2,20:R3-3:R2$$$V2.0; N-terminus assumed)",4.78 ± 0.46,25.0,no obvious pathological changes are seen in portal areas and interstitium,3.62 ± 0.84,0.88 ± 0.28^Δ mmol/L,3.50,4.50,5.70,5.50,42.24,9.82 ± 2.06,4.24 ± 0.63
2.03,0.742,"CCCCCCCCCCCCCCCC(=O)N[C@@H](CCC(=O)NCCCC[C@H](NC(=O)[C@H](C)NC(=O)[C@H](C)NC(=O)[C@H](CCCNC(=N)N)NC(=O)[C@H](CCC(=O)O)NC(=O)[C@H](CCC(=O)O)NC(=O)[C@H](CC(C)C)NC(=O)[C@H](Cc1ccc(O)cc1)NC(=O)[C@H](CCCCN)NC(=O)[C@H](CO)NC(=O)[C@H](Cc1ccc(O)cc1)NC(=O)[C@H](CC(=O)O)NC(=O)[C@H](CO)NC(=O)[C@@H](NC(=O)[C@H](Cc1ccccc1)NC(=O)[C@@H](NC(=O)CNC(=O)[C@H](CCC(N)=O)NC(=O)C(C)(C)NC(=O)[C@@H](N)Cc1c[nH]cn1)[C@@H](C)O)[C@@H](C)O)C(=O)N[C@@H](CCC(=O)O)C(=O)N[C@@H](Cc1ccccc1)C(=O)N[C@H](C(=O)N[C@@H](C)C(=O)N[C@@H](Cc1c[nH]c2ccccc12)C(=O)N[C@@H](CC(C)C)C(=O)N[C@@H](CCC(=O)O)C(=O)N[C@@H](CO)C(=O)NCC(=O)NCC(N)=O)[C@@H](C)CC)C(=O)O [dgc008] (HELM PEPTIDE1{H.[Aib].Q.G.T.F.T.S.D.Y.S.K.Y.L.E.E.R.A.A.K.E.F.I.A.W.L.E.S.G.G.[am]}|PEPTIDE2{[CCCCCCCCCCCCCCCC(=O)[*:2]].[gGlu]}$PEPTIDE1,PEPTIDE2,20:R3-2:R2$$$V2.0; N-terminus assumed)",–,–,–,–,–,–,–,–,–,48.70,8.72 ± 1.99,3.64 ± 1.00
0.971,0.28,"CCCCCCCCCCCCCCCC(=O)N[C@@H](CCC(=O)NCCCC[C@H](NC(=O)[C@H](C)NC(=O)[C@H](C)NC(=O)[C@H](CCCNC(=N)N)NC(=O)[C@H](CCC(=O)O)NC(=O)[C@H](CC(=O)O)NC(=O)[C@H](CC(C)C)NC(=O)[C@H](Cc1ccc(O)cc1)NC(=O)[C@H](CCCCN)NC(=O)[C@H](CO)NC(=O)[C@H](Cc1ccc(O)cc1)NC(=O)[C@H](CC(=O)O)NC(=O)[C@H](CO)NC(=O)[C@@H](NC(=O)[C@H](Cc1ccccc1)NC(=O)[C@@H](NC(=O)CNC(=O)[C@H](CCC(N)=O)NC(=O)C(C)(C)NC(=O)[C@@H](N)Cc1c[nH]cn1)[C@@H](C)O)[C@@H](C)O)C(=O)N[C@@H](CCC(=O)O)C(=O)N[C@@H](Cc1ccccc1)C(=O)N[C@H](C(=O)N[C@@H](C)C(=O)N[C@@H](Cc1c[nH]c2ccccc12)C(=O)N[C@@H](CC(C)C)C(=O)N[C@@H](CCC(=O)O)C(=O)N[C@@H](CO)C(=O)NCC(=O)NCC(N)=O)[C@@H](C)CC)C(=O)O [dgc007] (HELM PEPTIDE1{H.[Aib].Q.G.T.F.T.S.D.Y.S.K.Y.L.D.E.R.A.A.K.E.F.I.A.W.L.E.S.G.G.[am]}|PEPTIDE2{[CCCCCCCCCCCCCCCC(=O)[*:2]].[gGlu]}$PEPTIDE1,PEPTIDE2,20:R3-2:R2$$$V2.0; N-terminus assumed)",–,–,–,–,–,–,–,–,–,–,–,–
1.99,0.319,"CCCCCCCCCCCCCCCC(=O)N[C@@H](CCC(=O)N[C@@H](CCC(=O)NCCCC[C@H](NC(=O)[C@H](C)NC(=O)[C@H](C)NC(=O)[C@H](CCCNC(=N)N)NC(=O)[C@H](CCC(=O)O)NC(=O)[C@H](CC(=O)O)NC(=O)[C@H](CC(C)C)NC(=O)[C@H](Cc1ccc(O)cc1)NC(=O)[C@H](CCCCN)NC(=O)[C@H](CO)NC(=O)[C@H](Cc1ccc(O)cc1)NC(=O)[C@H](CC(=O)O)NC(=O)[C@H](CO)NC(=O)[C@@H](NC(=O)[C@H](Cc1ccccc1)NC(=O)[C@@H](NC(=O)CNC(=O)[C@H](CCC(N)=O)NC(=O)C(C)(C)NC(=O)[C@@H](N)Cc1c[nH]cn1)[C@@H](C)O)[C@@H](C)O)C(=O)N[C@@H](CCC(=O)O)C(=O)N[C@@H](Cc1ccccc1)C(=O)N[C@H](C(=O)N[C@@H](C)C(=O)N[C@@H](Cc1c[nH]c2ccccc12)C(=O)N[C@@H](CC(C)C)C(=O)N[C@@H](CCC(=O)O)C(=O)NCC(=O)NCC(N)=O)[C@@H](C)CC)C(=O)O)C(=O)O [dgc013] (HELM PEPTIDE1{H.[Aib].Q.G.T.F.T.S.D.Y.S.K.Y.L.D.E.R.A.A.K.E.F.I.A.W.L.E.G.G.[am]}|PEPTIDE2{[CCCCCCCCCCCCCCCC(=O)[*:2]].[gGlu].[gGlu]}$PEPTIDE1,PEPTIDE2,20:R3-3:R2$$$V2.0; N-terminus assumed)",–,–,–,–,–,–,–,–,–,45.53,9.26 ± 1.76,3.92 ± 0.51
